Measured values from publication PMC9322122, “Development of (4-Phenylamino)quinazoline Alkylthiourea Derivatives as Novel NF-κB Inhibitors” (Pharmaceuticals, 2022).
“Also recorded” adds a separate entry of the source.

Tests used:
[1] = Cell viability (WST-1), HEK293; assay type: cell-based; conditions: human, HEK293 cells, mean ± SEM, n = 3
Procedure: (§1) Cells were incubated with the WST-1 reagent (Thermo Fisher Scientific, Waltham, MA, USA) at 37 °C for 2 h. The cell viability was determined by spectrophotometer at 450 nm.

NF-κB = NF-κB luciferase reporter assay; assay type: cell-based; conditions: Homo sapiens, NF-κB-luciferase-transfected HEK293 cells, TNFα 50 ng/mL
Procedure: NF-κB Luciferase Reporter Vector was purchased from Signosis (Santa Clara, CA, USA) and transfected into HEK-293 cells using FuGENE HD (Promega, Fitchburg, MA, USA) following the manufacturer’s protocol. The transfected cells were incubated in serum-free DMEM for 16 h and then treated with DMSO or indicated compounds. After 3 h, cells were treated with or without 50 ng/mL of Recombinant Human TNFα Protein (R&D systems, Minneapolis, MN, USA) for another 3 h. The protein lysates were analyzed using Steady-Glo® Luciferase Assay System (Promega, Fitchburg, MA, USA) and TECAN Infinite 200 pro (Männedorf, Switzerland).

TNFα production = TNFα production in LPS-activated dTHP-1 cells (ELISA); assay type: cell-based; conditions: Homo sapiens
Procedure: (§2) The HEK-293 (ATCC Cat# CRL-1573, RRID:CVCL_0045) and human monocytic THP−1 cells (ATCC Cat# TIB-202, RRID:CVCL_0006) were, respectively, cultured in DMEM and RPMI 1640 media supplemented with 10% fetal bovine serum, 2 mM L-glutamine, and 1× Antibiotic-Antimycotic at 37 °C in a humidified incubator with 5% CO2. THP−1 cells were differentiated by 100 nM phorbol-12-myristate-13-acetate (PMA) for 4 h and then rested for 44 h as dTHP−1 cells.
(§3) The dTHP−1 cells were treated with indicated compounds for 3 h and then activated with or without 100 ng/mL lipopolysaccharide (LPS; E. coli 0111:B4) for another 24 h. The levels of human IL-6 and TNFα in supernatants were measured by DuoSet® ELISA Development System (R&D systems, Minneapolis, MN, USA) according to the manufacturer’s protocol.

NF-κB p65 = experiment: Nuclear translocation of NF-κB p65, immunofluorescent staining; assay type: cell-based, human; conditions: 7.5 µM, 3 h, then LPS 0.1 µg/mL 30 min; dTHP-1 cells
Procedure: Cells were fixed with 4% formaldehyde and then incubated with 5% goat serum. The intracellular location of NF-κB p65 was determined using primary antibodies against NF-κB p65 (Cell Signaling Technology, Beverly, MA, USA) and FITC-conjugated secondary antibody. Nuclei were counterstained with Hoechst (1 µg/mL). Images were obtained by fluorescent microscopy (OLYMPUS IX 81; Olympus, Tokyo, Japan).
(§4) The dTHP−1 cells were incubated with DMSO (0.1%), 19 (7.5 µM), or CAPE (10 µM) in medium for 3 h and then stimulated with or without LPS (0.1 µg/mL) for another 30 min. (A) Nuclear translocation of NF-κB p65 (green) was determined by immunofluorescent microscopy. Hoechst (blue) was used for nuclei staining. (B) The nuclear NF-κB p65-positive cells were quantified. (C) The levels of phospho-NF-κB p65 (S468), IκB, and GAPDH were determined by Western blot. (D) The normalized phospho-NF-κB p65 (S468) and IκB levels were quantified. All data are expressed as mean ± SEM (n = 3); ** p < 0.01 and *** p < 0.001 compared with the DMSO + LPS group.

IKBKB (IKK beta) = molecular target: T1, IKBKB (IKK beta) (Homo sapiens, UniProt O14920); experiment: Kinase selectivity profiling (Thermo Fisher); assay type: biochemical; conditions: ATP 100 μM, mean of duplicates
T1 construct: purchased Thermo Fisher Scientific (screening service)
Procedure: (§5) Tabl e S1. Selectivity profiling of compound 19 ag ainst the protein kinases known to regulate the NF-kB pathway ki nase % Inhibiti on at 2 µMa […]
(§6) aScreenings were perf or med as a servi ce at Thermo Fisher Scientific at an ATP concentrat ion of 100 μM. n.i., no inhi biti on. Data represent mean values of duplicat es that differed by less t han 7%.

MAPK3 (ERK1) = molecular target: T2, MAPK3 (ERK1) (Homo sapiens, UniProt P27361); experiment: Kinase selectivity profiling (Thermo Fisher); assay type: biochemical; conditions: ATP 100 μM, mean of duplicates
T2 construct: purchased Thermo Fisher Scientific (screening service)
Procedure: as §5, §6

MAP3K14 (NIK) = molecular target: T3, MAP3K14 (NIK) (Homo sapiens, UniProt Q99558); experiment: Kinase selectivity profiling (Thermo Fisher); assay type: biochemical; conditions: ATP 100 μM, mean of duplicates
T3 construct: purchased Thermo Fisher Scientific (screening service)
Procedure: as §5, §6

IRAK4 = molecular target: T4, IRAK4 (Homo sapiens, UniProt Q9NWZ3); experiment: Kinase selectivity profiling (Thermo Fisher); assay type: biochemical; conditions: ATP 100 μM, mean of duplicates
T4 construct: purchased Thermo Fisher Scientific (screening service)
Procedure: as §5, §6

RPS6KA1 (RSK1) = molecular target: T5, RPS6KA1 (RSK1) (Homo sapiens, UniProt Q15418); experiment: Kinase selectivity profiling (Thermo Fisher); assay type: biochemical; conditions: ATP 100 μM, mean of duplicates
T5 construct: purchased Thermo Fisher Scientific (screening service)
Procedure: as §5, §6

IL-6 production = IL-6 production in LPS-activated dTHP-1 cells (ELISA); assay type: cell-based, human; conditions: Homo sapiens
Procedure: as §2, §3

[2] = Cell viability (WST-1), A549; assay type: cell-based; conditions: human, A549 cells, mean ± SEM, n = 3
Procedure: as §1

dTHP−1 cells = experiment: Cell viability of dTHP-1 cells with or without LPS; assay type: cell-based, human; conditions: in % (unit assumed)
Procedure: as §2, §1, §3

phospho-NF-κB p65 (S468) = experiment: Western blot phospho-NF-κB p65 (S468) in dTHP-1 cells; assay type: cell-based, human; conditions: 7.5 µM; LPS-stimulated dTHP-1 cells
Procedure: Cells were lysed in the commercial RIPA Buffer (Thermo Fisher Scientific, Waltham, MA, USA) and then centrifuged at 14,000× g for 20 min. […] Antibodies used in this study were phospho-NF-κB p65 (S468; catalog no. 3039), phospho-NF-κB p65 (S536; catalog no. 3033), phospho-IKKα/β (catalog no. 2697), and IκB (catalog no. 9242) from Cell Signaling Technology (Beverly, MA, USA); GAPDH from ABclonal (catalog no. A10868; Woburn, MA, USA). The labeled signals were determined using an enhanced chemiluminescence system (UVP, Upland, CA, USA). The experiments were performed at least two times in triplicate, providing basically the same results.
as §4

[3] = LPS-activated dTHP-1 cells, 24 h

T2 sequence (P27361 whole entry): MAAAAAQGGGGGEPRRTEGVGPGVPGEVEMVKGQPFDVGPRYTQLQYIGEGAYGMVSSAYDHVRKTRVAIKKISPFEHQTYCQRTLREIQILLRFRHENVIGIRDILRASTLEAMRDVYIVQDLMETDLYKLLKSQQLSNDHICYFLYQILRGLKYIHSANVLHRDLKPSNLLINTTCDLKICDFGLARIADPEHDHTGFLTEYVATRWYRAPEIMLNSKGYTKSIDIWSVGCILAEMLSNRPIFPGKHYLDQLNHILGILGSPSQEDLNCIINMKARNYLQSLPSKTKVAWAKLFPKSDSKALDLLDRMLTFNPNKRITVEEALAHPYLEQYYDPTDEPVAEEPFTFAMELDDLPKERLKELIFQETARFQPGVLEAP
T3 sequence (Q99558 whole entry): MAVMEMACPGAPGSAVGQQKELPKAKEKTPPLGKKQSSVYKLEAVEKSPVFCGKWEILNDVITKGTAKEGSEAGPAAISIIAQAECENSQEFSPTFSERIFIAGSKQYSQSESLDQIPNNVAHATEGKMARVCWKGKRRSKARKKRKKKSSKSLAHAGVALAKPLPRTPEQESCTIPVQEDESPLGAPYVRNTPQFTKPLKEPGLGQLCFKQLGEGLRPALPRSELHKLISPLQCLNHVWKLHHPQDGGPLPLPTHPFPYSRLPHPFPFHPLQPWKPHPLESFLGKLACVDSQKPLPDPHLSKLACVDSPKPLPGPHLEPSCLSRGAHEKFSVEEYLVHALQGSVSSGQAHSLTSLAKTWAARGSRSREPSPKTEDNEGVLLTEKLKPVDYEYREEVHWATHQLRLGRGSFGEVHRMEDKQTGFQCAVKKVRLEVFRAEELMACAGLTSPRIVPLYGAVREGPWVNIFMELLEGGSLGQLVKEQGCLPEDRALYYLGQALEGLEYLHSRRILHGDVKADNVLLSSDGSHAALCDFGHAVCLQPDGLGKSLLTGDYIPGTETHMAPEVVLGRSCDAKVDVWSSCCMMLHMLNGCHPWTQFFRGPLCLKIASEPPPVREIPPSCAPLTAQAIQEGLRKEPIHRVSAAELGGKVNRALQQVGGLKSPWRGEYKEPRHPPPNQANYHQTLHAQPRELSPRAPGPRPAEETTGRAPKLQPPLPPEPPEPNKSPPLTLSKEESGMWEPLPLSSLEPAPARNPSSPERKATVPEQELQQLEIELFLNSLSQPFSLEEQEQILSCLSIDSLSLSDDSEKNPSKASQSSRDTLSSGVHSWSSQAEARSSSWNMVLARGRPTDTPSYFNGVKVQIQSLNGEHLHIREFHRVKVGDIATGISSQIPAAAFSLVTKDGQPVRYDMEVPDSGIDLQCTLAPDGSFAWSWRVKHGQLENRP
T1 sequence (O14920 whole entry): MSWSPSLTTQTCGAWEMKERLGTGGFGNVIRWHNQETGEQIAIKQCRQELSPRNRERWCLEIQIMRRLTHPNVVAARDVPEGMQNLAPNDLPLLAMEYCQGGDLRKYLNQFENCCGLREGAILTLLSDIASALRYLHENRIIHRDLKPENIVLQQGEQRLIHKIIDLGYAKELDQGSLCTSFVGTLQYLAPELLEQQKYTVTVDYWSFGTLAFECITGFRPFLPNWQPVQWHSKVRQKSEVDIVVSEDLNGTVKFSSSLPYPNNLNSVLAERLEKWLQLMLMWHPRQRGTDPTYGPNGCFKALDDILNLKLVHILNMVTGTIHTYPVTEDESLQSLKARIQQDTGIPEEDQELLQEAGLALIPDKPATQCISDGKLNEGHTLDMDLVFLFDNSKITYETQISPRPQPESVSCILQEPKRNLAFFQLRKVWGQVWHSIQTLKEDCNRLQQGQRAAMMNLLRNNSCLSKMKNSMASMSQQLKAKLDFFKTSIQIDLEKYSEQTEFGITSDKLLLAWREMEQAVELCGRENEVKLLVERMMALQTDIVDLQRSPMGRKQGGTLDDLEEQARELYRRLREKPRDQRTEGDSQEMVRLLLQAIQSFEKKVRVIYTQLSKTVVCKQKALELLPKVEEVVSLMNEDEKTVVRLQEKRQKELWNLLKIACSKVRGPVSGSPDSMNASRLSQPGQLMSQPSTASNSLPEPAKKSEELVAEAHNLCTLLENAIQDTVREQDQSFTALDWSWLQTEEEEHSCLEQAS
T5 sequence (Q15418 whole entry): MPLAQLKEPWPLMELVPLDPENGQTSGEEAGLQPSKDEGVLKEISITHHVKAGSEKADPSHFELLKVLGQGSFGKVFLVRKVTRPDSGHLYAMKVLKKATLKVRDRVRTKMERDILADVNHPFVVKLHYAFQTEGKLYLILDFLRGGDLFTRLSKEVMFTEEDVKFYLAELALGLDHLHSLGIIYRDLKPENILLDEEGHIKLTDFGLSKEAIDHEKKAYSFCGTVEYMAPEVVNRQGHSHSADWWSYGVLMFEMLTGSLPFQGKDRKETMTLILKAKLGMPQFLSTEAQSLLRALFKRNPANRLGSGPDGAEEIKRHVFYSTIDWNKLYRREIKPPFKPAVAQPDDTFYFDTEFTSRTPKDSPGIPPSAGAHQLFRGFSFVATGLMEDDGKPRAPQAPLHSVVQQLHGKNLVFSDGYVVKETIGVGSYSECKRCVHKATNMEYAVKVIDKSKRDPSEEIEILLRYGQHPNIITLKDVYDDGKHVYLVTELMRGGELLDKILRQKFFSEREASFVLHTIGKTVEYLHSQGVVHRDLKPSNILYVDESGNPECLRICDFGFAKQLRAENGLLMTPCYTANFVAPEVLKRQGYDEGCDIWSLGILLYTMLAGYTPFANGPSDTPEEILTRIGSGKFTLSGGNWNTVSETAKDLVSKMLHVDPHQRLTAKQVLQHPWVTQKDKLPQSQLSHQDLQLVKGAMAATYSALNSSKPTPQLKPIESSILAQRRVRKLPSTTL
T4 sequence (Q9NWZ3 whole entry): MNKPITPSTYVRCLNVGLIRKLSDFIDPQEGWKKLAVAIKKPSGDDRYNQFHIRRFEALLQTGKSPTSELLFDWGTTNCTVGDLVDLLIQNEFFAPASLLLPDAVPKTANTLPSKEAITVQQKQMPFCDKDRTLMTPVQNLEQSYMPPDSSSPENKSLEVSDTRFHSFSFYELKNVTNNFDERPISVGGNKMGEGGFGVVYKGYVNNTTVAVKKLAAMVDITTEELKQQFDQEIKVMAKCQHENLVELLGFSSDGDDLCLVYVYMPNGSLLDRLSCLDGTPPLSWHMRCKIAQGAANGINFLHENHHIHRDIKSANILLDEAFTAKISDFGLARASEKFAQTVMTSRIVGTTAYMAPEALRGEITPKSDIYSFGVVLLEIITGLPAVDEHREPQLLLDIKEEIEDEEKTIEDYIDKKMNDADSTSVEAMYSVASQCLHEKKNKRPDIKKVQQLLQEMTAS

- IC50 (NF-κB): 2300 nM
- melting point: 229.1 to 231.6 °C
- IC50 (TNFα production; [3]): 4000 ± 200 nM
- inhibition at 2 µM (IKBKB (IKK beta)): 3%
- inhibition at 2 µM (MAPK3 (ERK1)): 2%
- inhibition at 2 µM (MAP3K14 (NIK)): 9%
- inhibition at 2 µM (IRAK4): 5%
- inhibition at 2 µM (RPS6KA1 (RSK1)): 1%
- IC50 (IL-6 production; [3]): 840 ± 120 nM
Compound: S=C(Nc1ccc2ncnc(Nc3cccc(Cl)c3)c2c1)NC1CCCC1 [Compound 19, 1-(4-((3-Chlorophenyl)amino)quinazolin-6-yl)-3-cyclopentylthiourea]
- viability at 10 µM [1]: 118 ± 11.4%
- inhibition at 10 µM (NF-κB; 10 μM, mean ± SEM, n = 3, read-out: NF-κB Luciferase Activity Inh %): 92.5 ± 0.8%
- inhibition at 7.5 µM (TNFα production; 7.5 μM, LPS 100 ng/mL for 24 h, dTHP-1 cells, read-out: TNFα Production Inh % (7.5 μM)): 82.5 ± 5.6%
- inhibition at 15 µM (TNFα production; 15 μM, LPS 100 ng/mL for 24 h, dTHP-1 cells, read-out: TNFα Production Inh % (15 μM)): 91.5 ± 2.5%
- LPS-induced nuclear translocation of NF-κB p65 (NF-κB p65): inhibits the LPS-induced nuclear translocation of NF-κB p65; also recorded: clearly inhibited the nuclear translocation of NF-κB
- inhibition at 7.5 µM (IL-6 production; 7.5 μM, LPS 100 ng/mL for 24 h, dTHP-1 cells, read-out: IL-6 Production Inh % (7.5 μM)): 92.7 ± 5.5%
- inhibition at 15 µM (IL-6 production; 15 μM, LPS 100 ng/mL for 24 h, dTHP-1 cells, read-out: IL-6 Production Inh % (15 μM)): 98.3 ± 0.28%
- viability at 10 µM [2]: 99.9 ± 1.6%
- Cell viability of dTHP-1 cells, 5 μM, LPS (dTHP−1 cells; 5 μM (so in the source), LPS 100 ng/mL for 24 h): 4.9 ± 0.38
- Cell viability of dTHP-1 cells, 5 μM, without LPS (dTHP−1 cells; 5 μM (so in the source), no LPS): 30.0 ± 1.3
- Cell viability of dTHP-1 cells, 7.5 μM, without LPS (dTHP−1 cells; 7.5 μM, no LPS): 60.3 ± 0.85
- Phosphorylation of p65-Ser468 (phospho-NF-κB p65 (S468)): significantly diminished phosphorylation of p65-Ser468
